Measurements as given in patent US12570618B2, “Compound, production method therefor, and pharmaceutical composition” (TOKYO UNIVERSITY OF SCIENCE FOUNDATION, priority 2021, dated 2026).

Experiments:
[1] = test system: HMC-1.2 cells; test: cell proliferation inhibitory activity, ATP production (Test Example 1); format: cell-based, human; conditions: for IC50: Homo sapiens, 48 h, HMC-1.2 cells (KIT^V560G/D816V, imatinib-resistant), cultured 2 days with compound, ATP production, n=3; for inhibition of cell proliferation (in words): HMC-1.2 cells, FIG. 3
Excerpt: (§1) Compounds RS1, RS2, and RS5 obtained in Synthesis Examples 1, 2, and 5, and M-COPA synthesized in the same manner as in Synthesis Example 1 in Patent Document 1 were examined for cell proliferation inhibitory activity against human cultured cancer cells with KIT tyrosine kinase mutation. The human cultured cancer cells used were GIST-T1 cells (KIT^Δ560-578. imatinib-sensitive) and GIST-R9 cells (KIV^Δ560-578/D820V, imatinib-resistant) as gastrointestinal stromal tumor cell lines, and HMC-1.2 cells (KIT^V560G/D816V, imatinib-resistant) as a mast cell leukemia cell line. The cancer cells of each type were seeded on a 96-well plate and cultured overnight, and cultured for 2 days with addition of serially diluted products of the compounds, and the cell proliferation was then measured by quantifying the ATP production (n=3). FIG. 1 to FIG. 3 show the cell proliferation curves for the GIST-T1 cells, GIST-R9 cells, and HMC-1.2 cells.

[2] = test system: GIST-T1 cells; test: as above; format: cell-based, human; conditions: for IC50: Homo sapiens, GISTT1, 48 h, GIST-T1 cells (KIT^Δ560-578, imatinib-sensitive), cultured 2 days with compound, ATP production, n=3; for inhibition of cell proliferation (in words): GIST-T1 cells, FIG. 1
Excerpt: as §1

[3] = test system: GIST-R9 cells; test: as above; format: cell-based, human; conditions: for IC50: Homo sapiens, 48 h, GIST-R9 cells (KIV^Δ560-578/D820V, imatinib-resistant), cultured 2 days with compound, ATP production, n=3; for inhibition of cell proliferation (in words): GIST-R9 cells, FIG. 2
Excerpt: as §1

[4] = test system: H1650 (Lung adenocarcinoma cell line); test: cell proliferation inhibitory activity, WST-8 (Test Example 2); format: cell-based; conditions: Homo sapiens, NCI-H1650, 48 h; H1650, 2 days with compound, WST-8, Table 2
Excerpt: (§2) Compounds RS1 to RS7 obtained in Synthesis Examples 1 to 7, and M-COPA synthesized in the same manner as in Synthesis Example 1 in Patent Document 1 were examined for cell proliferation inhibitory activity against human cultured cancer cells. The cancer cells used were eight human cancer cell lines (one skin cancer cell line, one ovarian cancer cell line, one prostate cancer cell line, two lung adenocarcinoma cell lines, one colorectal cancer cell line, two breast adenocarcinoma cell lines). The cancer cells of each type were seeded on a 96-well plate and cultured for 2 days, and cultured for 2 days with addition of serially diluted products of the compounds, and the cell proliferation was then measured by colorimetry with a water-soluble tetrazolium salt (WST-8). Thereafter, 50% cell proliferation inhibitory concentrations (GI50) were calculated from the cell proliferation curves.

[5] = test system: Hs578t (Breast adenocarcinoma cell line); test: as above; format: cell-based; conditions: Homo sapiens, Hs-578T, 48 h, 2 days with compound
Excerpt: as §2

[6] = test system: Hs925t (Skin cancer cell line); test: as above; format: cell-based; conditions: Homo sapiens, 48 h, 2 days with compound
Excerpt: as §2

[7] = test system: SK-OV3 (Ovarian cancer cell line); test: as above; format: cell-based; conditions: Homo sapiens, SK-OV-3, 48 h, SK-OV3, 2 days with compound
Excerpt: as §2

[8] = test system: H2228 (Lung adenocarcinoma cell line); test: as above; format: cell-based; conditions: Homo sapiens, NCI-H2228, 48 h; H2228, 2 days with compound, WST-8, Table 2
Excerpt: as §2

[9] = test system: DLD-1 (Colorectal cancer cell line); test: as above; format: cell-based; conditions: Homo sapiens, 48 h, DLD-1, 2 days with compound
Excerpt: as §2

[10] = test system: DU-145 (Prostate cancer cell line); test: as above; format: cell-based; conditions: Homo sapiens, 48 h, DU-145, 2 days with compound
Excerpt: as §2

[11] = test system: MCF-7 (Breast adenocarcinoma cell line); test: as above; format: cell-based; conditions: Homo sapiens, MCF7, 48 h, MCF-7, 2 days with compound
Excerpt: as §2

[12] = test system: H226 (Lung squamous cell carcinoma cell line); test: cell proliferation inhibitory activity, WST-8 (Test Example 3); format: cell-based; conditions: Homo sapiens, NCI-H226, 48 h; H226, 2 days with compound, WST-8, Table 3
Procedure: (§3) Compounds RS8 to RS10 obtained in Synthesis Examples 8 to 10 were examined for cell proliferation inhibitory activity against human cultured cancer cells. The cancer cells used were two human lung adenocarcinoma cell lines and one human lung squamous cell carcinoma cell line. The cancer cells of each type were seeded on a 96-well plate and cultured for 2 days, and cultured for 2 days with addition of serially diluted products of the compounds, and the cell proliferation was then measured by colorimetry with a water-soluble tetrazolium salt (WST-8). Thereafter, 50% cell proliferation inhibitory concentrations (GI50) were calculated from the cell proliferation curves.

[13] = test system: H1650 (Lung adenocarcinoma cell line); test: as above; format: cell-based; conditions: Homo sapiens, NCI-H1650, 48 h; H1650, 2 days with compound, WST-8, Table 3
Procedure: as §3

[14] = test system: H2228 (Lung adenocarcinoma cell line); test: as above; format: cell-based; conditions: Homo sapiens, NCI-H2228, 48 h; H2228, 2 days with compound, WST-8, Table 3
Procedure: as §3

Row | SMILES | GI50 [4] | GI50 [5] | GI50 [6] | GI50 [7] | GI50 [8] | GI50 [9] | GI50 [10] | GI50 [11] | GI50 [12] | GI50 [13] | GI50 [14] | IC50 [1] | IC50 [2] | IC50 [3] | inhibition of cell proliferation (in words) [1] | inhibition of cell proliferation (in words) [2] | inhibition of cell proliferation (in words) [3]
1 | C/C(=C\C=C\[C@@H]1[C@H]2[C@H](C)[C@@H](O)[C@H](C)C[C@@H]2C=C[C@@H]1C)C(=O)NCc1cccnc1 [M-COPA, 2-methylcoprophilinamide, reference compound] | 80 nM | 40 nM | 50 nM | 30 nM | 40 nM | 30 nM | 100 nM | 350 nM |  |  |  | 86 ± 9 nM | 347 ± 21 nM | 528 ± 59 nM |  |  | 
2 | C[C@@H]1[C@@H](O)[C@H](C)C[C@@H]2C=C[C@H](C)[C@H](/C=C/C=C(\Br)C(=O)NCc3cocn3)[C@@H]12 [RS3, (2Z,4E)-2-Bromo-5-((1′S,2′S,4′aR,6′R,7′S,8′S,8′aS)-7′-hydroxy-2′,6′,8′-trimethyl-1′,2′,4′a,5′,6′,7′,8′,8′a-octahydronaphthalen-1′-yl)-N-(oxazol-4″-ylmethyl)penta-2,4-dienamide] | 80 nM | 3 nM | 30 nM | 30 nM | 50 nM | 30 nM | 200 nM | 300 nM |  |  |  |  |  |  |  |  | 
3 | C[C@@H]1[C@@H](O)[C@H](C)C[C@@H]2C=C[C@H](C)[C@H](/C=C/C=C(\Br)C(=O)NCc3cccnc3)[C@@H]12 [RS5, (2Z,4E)-2-Bromo-5-((1′S,2′S,4′aR,6′R,7′S,8′S,8′aS)-7′-hydroxy-2′,6′,8′-trimethyl-1′,2′,4′a,5′,6′,7′,8′,8′a-octahydronaphthalen-1′-yl)-N-(pyridin-3″-ylmethyl)penta-2,4-dienamide] | 50 nM | 30 nM | 0.1 nM | 1 nM | 30 nM | 0.3 nM | 10 nM | 80 nM |  |  |  | 42 nM | 169 nM | 292 nM | in a concentration-dependent manner | in a concentration-dependent manner | in a concentration-dependent manner
4 | C[C@H]1[C@@H]2[C@@H](/C=C/C=C(\Br)C(=O)NCc3cncs3)[C@@H](C)C=C[C@H]2CC[C@@H]1O [RS6, (2Z,4E)-2-Bromo-5-((1′S,2′S,4′aR,7′S,8′S,8′aS)-7′-hydroxy-2′,8′-dimethyl-1′,2′,4′a,5′,6′,7′,8′,8′a-octahydronaphthalen-1′-yl)-N-(thiazol-5″-ylmethyl)penta-2,4-dienamide] | 100 nM | 30 nM | 3 nM | 5 nM | 100 nM | 40 nM | 50 nM | 100 nM |  |  |  |  |  |  |  |  | 
5 | C[C@H]1[C@@H]2[C@@H](/C=C/C=C(\Br)C(=O)NCc3cccnc3)[C@@H](C)C=C[C@H]2CC[C@@H]1O [RS7, (2Z,4E)-2-Bromo-5-((1′S,2′S,4′aR,7′S,8′S,8′aS)-7′-hydroxy-2′,8′-dimethyl-1′,2′,4′a,5′,6′,7′,8′,8′a-octahydronaphthalen-1′-yl)-N-(pyridin-3″-ylmethyl)penta-2,4-dienamide] | 100 nM | 10 nM | 30 nM | 50 nM | 1000 nM | 30 nM | 300 nM | 1000 nM |  |  |  |  |  |  |  |  | 
6 | C[C@@H]1[C@@H](O)[C@H](C)C[C@@H]2C=C[C@H](C)[C@H](/C=C/C=C(\Br)C(=O)NCc3ccccn3)[C@@H]12 [RS8, (2Z,4E)-2-Bromo-5-((1′S,2′S,4′aR,6′R,7′S,8′S,8′aS)-7′-hydroxy-2′,6′,8′-trimethyl-1′,2′,4′a,5′,6′,7′,8′,8′a-octahydronaphthalen-1′-yl)-N-(pyridin-2″-ylmethyl)penta-2,4-dienamide] |  |  |  |  |  |  |  |  | 40 nM | 300 nM | 300 nM |  |  |  |  |  | 

More lines, main results first:

Row | GI50 [4] | GI50 [5] | GI50 [6] | GI50 [7] | GI50 [8] | GI50 [9] | GI50 [10] | GI50 [11] | GI50 [12] | GI50 [13] | GI50 [14] | SMILES | IC50 [1] | IC50 [2] | IC50 [3] | inhibition of cell proliferation (in words) [1] | inhibition of cell proliferation (in words) [2] | inhibition of cell proliferation (in words) [3]
7 | 5 nM | 3 nM | 1 nM | 5 nM | 10 nM | 3 nM | 40 nM | 30 nM |  |  |  | C[C@@H]1[C@@H](O)[C@H](C)C[C@@H]2C=C[C@H](C)[C@H](/C=C/C=C(\Br)C(=O)NCc3cnco3)[C@@H]12 [RS1, (2Z,4E)-2-Bromo-5-((1′S,2′S,4′aR,6′R,7′S,8′S,8′aS)-7′-hydroxy-2′,6′,8′-trimethyl-1′,2′,4′a,5′,6′,7′,8′,8′a-octahydronaphthalen-1′-yl)-N-(oxazol-5″-ylmethyl)penta-2,4-dienamide] | 50 nM | 268 nM | 363 nM | in a concentration-dependent manner | in a concentration-dependent manner | in a concentration-dependent manner
8 | 30 nM | 30 nM | 0.3 nM | 3 nM | 40 nM | 1 nM | 10 nM | 30 nM |  |  |  | C[C@@H]1[C@@H](O)[C@H](C)C[C@@H]2C=C[C@H](C)[C@H](/C=C/C=C(\Br)C(=O)NCc3cncs3)[C@@H]12 [RS2, (2Z,4E)-2-Bromo-5-((1′S,2′S,4′aR,6′R,7′S,8′S,8′aS)-7′-hydroxy-2′,6′,8′-trimethyl-1′,2′,4′a,5′,6′,7′,8′,8′a-octahydronaphthalen-1′-yl)-N-(thiazol-5″-ylmethyl)penta-2,4-dienamide] | 37 nM | 128 nM | 169 nM | in a concentration-dependent manner | in a concentration-dependent manner | in a concentration-dependent manner
9 | 70 nM | 30 nM | 10 nM | 40 nM | 70 nM | 40 nM | 300 nM | 500 nM |  |  |  | C[C@@H]1[C@@H](O)[C@H](C)C[C@@H]2C=C[C@H](C)[C@H](/C=C/C=C(\Br)C(=O)NCc3nccs3)[C@@H]12 [RS4, (2Z,4E)-2-Bromo-5-((1′S,2′S,4′aR,6′R,7′S,8′S,8′aS)-7′-hydroxy-2′,6′,8′-trimethyl-1′,2′,4′a,5′,6′,7′,8′,8′a-octahydronaphthalen-1′-yl)-N-(thiazol-2″-ylmethyl)penta-2,4-dienamide] |  |  |  |  |  | 
10 |  |  |  |  |  |  |  |  | 40 nM | 200 nM | 400 nM | C[C@@H]1[C@@H](O)[C@H](C)C[C@@H]2C=C[C@H](C)[C@H](/C=C/C=C(\Br)C(=O)OCc3cccnc3)[C@@H]12 [RS9, Pyridin-3″-ylmethyl (2Z,4E)-2-bromo-5-((1′S,2′S,4′aR,6′R,7′S,8′S,8′aS)7′-hydroxy-2′,6′,8′-trimethyl-1′,2′,4′a,5′,6′,7′,8′,8′a-octahydronaphthalen-1′-yl)penta-2,4-dienoate] |  |  |  |  |  | 
